Source: patent US20090093460A1, “Compositions” (AstraZeneca AB, priority 2003, published 2009)

Assays:
mice [1] = assay: Standard apomorphine climbing mouse assay; assay type: in vivo; conditions: p.o.
Text: (§1) The methods and procedures used can be found in Warawa et al., J. Med. Chem., 2001, 44 (3), 372-389, and are incorporated herein by reference.

rats = assay: D-amphetamine locomotor activity test; assay type: in vivo, rat; conditions: freebase, s.c.
Text: as §1

Adrenergic α2A = target: T1, Adrenergic α2A (Homo sapiens, UniProt P08913); assay: Radioligand binding Adrenergic α2A
T1 sequence (P08913 1-465): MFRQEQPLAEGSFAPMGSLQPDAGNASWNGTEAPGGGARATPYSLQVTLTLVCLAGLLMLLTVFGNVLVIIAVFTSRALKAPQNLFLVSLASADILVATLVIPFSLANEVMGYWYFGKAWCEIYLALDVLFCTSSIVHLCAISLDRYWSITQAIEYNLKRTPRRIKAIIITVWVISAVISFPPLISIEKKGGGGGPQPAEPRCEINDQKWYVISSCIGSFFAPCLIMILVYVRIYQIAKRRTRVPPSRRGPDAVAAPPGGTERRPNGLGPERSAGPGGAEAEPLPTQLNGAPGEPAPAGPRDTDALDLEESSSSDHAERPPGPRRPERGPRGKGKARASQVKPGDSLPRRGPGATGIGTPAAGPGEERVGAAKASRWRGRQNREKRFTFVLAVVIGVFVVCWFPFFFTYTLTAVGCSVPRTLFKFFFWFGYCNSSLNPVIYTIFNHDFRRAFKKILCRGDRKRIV

Adrenergic α2B = target: T2, Adrenergic α2B (Homo sapiens, UniProt P18089); assay: Radioligand binding Adrenergic α2B
T2 sequence (P18089 1-450): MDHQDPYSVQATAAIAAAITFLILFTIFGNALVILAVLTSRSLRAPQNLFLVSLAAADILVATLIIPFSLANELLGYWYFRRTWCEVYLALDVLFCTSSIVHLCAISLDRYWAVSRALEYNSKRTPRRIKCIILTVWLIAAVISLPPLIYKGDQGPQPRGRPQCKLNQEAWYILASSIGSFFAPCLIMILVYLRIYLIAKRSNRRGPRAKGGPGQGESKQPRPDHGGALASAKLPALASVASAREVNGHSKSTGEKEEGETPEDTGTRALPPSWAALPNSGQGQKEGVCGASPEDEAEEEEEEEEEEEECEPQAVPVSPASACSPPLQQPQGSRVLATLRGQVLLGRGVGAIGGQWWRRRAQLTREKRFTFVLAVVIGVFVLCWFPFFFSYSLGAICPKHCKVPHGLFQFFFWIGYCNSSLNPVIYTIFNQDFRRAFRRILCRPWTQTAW

[2] = Oral bioavailability in Sprague-Dawley rats; assay type: in vivo; conditions: rat, plasma, 30 μmol/kg
Method: 11-piperazin-1-yldibenzo[b,f][1,4]thiazepine was administered to 3 Sprague-Dawley rats each either intravenously or orally at doses of 10 μmol/kg or 30 μmol/kg, respectively, in a sodium citrate (pH 3) formulation. Blood samples were removed from each animal at several time points after dosing. The blood samples were centrifuged to produce plasma. Aliquots of each plasma sample were analyzed by an HPLC method with mass spectrometric detection to measure 11-piperazin-1-yldibenzo[b,f][1,4]thiazepine. The area under the plasma concentration curves (AUC) constructed from the sample measurements following iv or po administration were used to calculate oral biovailability.

H1 receptor = H1 receptor (Homo sapiens, UniProt P35367); assay: H1 receptor binding
H1 receptor, sequence (P35367 whole entry): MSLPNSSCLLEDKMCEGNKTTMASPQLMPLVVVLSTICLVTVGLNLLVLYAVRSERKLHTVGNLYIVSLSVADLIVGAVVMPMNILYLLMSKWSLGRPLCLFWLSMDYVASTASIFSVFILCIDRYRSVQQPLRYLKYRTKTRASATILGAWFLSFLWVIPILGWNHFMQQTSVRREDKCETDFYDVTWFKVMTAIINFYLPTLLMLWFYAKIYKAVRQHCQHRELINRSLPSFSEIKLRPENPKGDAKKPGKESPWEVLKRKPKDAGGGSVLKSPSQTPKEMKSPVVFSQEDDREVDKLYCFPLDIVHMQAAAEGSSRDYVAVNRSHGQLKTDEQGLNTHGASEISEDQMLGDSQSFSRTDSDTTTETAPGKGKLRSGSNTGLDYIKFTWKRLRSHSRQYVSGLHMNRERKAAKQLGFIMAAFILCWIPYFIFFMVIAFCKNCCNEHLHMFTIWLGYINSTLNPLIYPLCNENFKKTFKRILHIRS
Method: The H1 receptor binding method was carried out in accordance with the method set out in De Backer M D et al. Biochem. Biophys. Res Commun. 197 (3); 1601, 1993.

mice [3] = assay: Mouse forced swim test; assay type: in vivo; conditions: 10.0 mg/kg sc, 15 minutes prior
Method: Methods: Mice were placed in cylinders of water (25.0° C.±1.5° C.) for 6 minutes. The amount of immobility was quantified during the last 4 minutes of each session. The experimental observer was blind to the treatment conditions. […] Imipramine 45.0 mg/kg and citalopram 15.0 mg/kg were measured as the salt and administered ip 60 minutes prior to the behavioural session.

5-HT2A receptors = target: T3, 5-HT2A receptors (Homo sapiens, UniProt P28223); assay: PET scans of primate subjects, 5-HT2A occupancy; assay type: in vivo; conditions: preliminary PET scans
T3 construct: from tissue; host or cells: brain of living primate subjects (PET)
T3 sequence (P28223 whole entry): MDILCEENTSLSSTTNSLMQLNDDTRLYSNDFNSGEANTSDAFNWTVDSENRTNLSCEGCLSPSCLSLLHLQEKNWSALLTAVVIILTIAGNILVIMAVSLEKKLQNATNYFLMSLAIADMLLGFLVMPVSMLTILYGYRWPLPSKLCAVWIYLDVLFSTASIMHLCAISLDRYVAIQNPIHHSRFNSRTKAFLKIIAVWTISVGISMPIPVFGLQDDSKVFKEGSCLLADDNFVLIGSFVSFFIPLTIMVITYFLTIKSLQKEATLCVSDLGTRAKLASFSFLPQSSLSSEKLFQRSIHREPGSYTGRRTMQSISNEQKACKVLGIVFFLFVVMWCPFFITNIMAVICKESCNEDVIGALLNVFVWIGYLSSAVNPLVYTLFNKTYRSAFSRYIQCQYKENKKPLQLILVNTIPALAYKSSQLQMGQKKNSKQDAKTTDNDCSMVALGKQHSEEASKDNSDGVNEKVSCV
Text: The compound of Formula I is a dibenzothiazepine that has shown antidopaminergic activity.

5-HT1A receptors = target: T4, 5-HT1A receptors (Homo sapiens, UniProt P08908); assay: In vitro assay of 5HT1A agonism (GTPγ35S, CHO membranes); assay type: biochemical; set-up: expressed in transfected cells; host or cells: CHO
T4 sequence (P08908 1-422): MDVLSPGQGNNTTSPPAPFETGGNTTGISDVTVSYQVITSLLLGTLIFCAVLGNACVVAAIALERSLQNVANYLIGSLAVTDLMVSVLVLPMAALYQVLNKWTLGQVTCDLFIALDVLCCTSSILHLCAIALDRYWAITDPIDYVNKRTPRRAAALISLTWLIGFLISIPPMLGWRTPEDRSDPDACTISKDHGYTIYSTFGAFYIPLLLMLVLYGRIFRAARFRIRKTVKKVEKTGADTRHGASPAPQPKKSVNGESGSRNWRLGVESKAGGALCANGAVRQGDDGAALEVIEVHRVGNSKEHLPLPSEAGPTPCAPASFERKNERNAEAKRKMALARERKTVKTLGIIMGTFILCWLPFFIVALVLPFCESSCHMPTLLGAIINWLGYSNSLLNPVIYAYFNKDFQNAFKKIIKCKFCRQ
Method: CHO membranes (10 μg protein) expressing human 5-HT1A receptors were incubated in 100 μl of 20 mM HEPES, pH 7.4 assay buffer containing 10 mM MgCl2, 100 mM NaCl, 0.1% BSA, 20 μM GDP, 200 μg WGA-PVT beads (Amersham RPNQ0001), 200 pM GTPγ^35S (Perkin Elmer NEG-030H). 11-piperazin-1-yldibenzo[b,f][1,4]thiazepine was incubated with the above at 11 different concentrations varying from 10 μM to 170 pM in Packard OptiPlates with shaking for 1.5 hours at room temperature. […] The plates were centrifuged to settle the beads and measured in a Parkard TopCount.

For c1ccc2c(c1)N=C(N1CCNCC1)c1ccccc1S2 [11-piperazin-1-yldibenzo[b,f][1,4]thiazepine], which “in vivo antipsychotic activity” value (mice [1]) is on record?
Its value is “not shown to be efficacious”.

And the “in vivo antipsychotic activity” value (rats)?
Its value is “not found to be efficacious”.

What about the “in vivo antipsychotic activity” value (rats; listed as compound of Formula I) of the same molecule?
Its value is “not shown to be efficacious”.

What about the IC50 (Adrenergic α2A) of the same molecule?
The IC50 was 2820 ± 275 nM.

What about the Ki (Adrenergic α2A) of the same molecule?
Its Ki is 1060 ± 103 nM.

And the n (Adrenergic α2A)?
The n was 0.969 ± 0.012.

What about the inhibition at 3 µM (Adrenergic α2A; 3 μM) of the same molecule?
The inhibition at 3 µM was 51%.

And the IC50 (Adrenergic α2B)?
The IC50 was 451 ± 97 nM.

What about the Ki (Adrenergic α2B) of the same molecule?
Its Ki is 206 ± 44.5 nM.

And the n (Adrenergic α2B)?
The n was 0.902 ± 0.055.

And the inhibition at 1 µM (Adrenergic α2B; 1 μM)?
Its inhibition at 1 µM is 62%.

What about the bioavailability [2] of the same molecule?
The bioavailability was 11%.

And the Ki (H1 receptor)?
Its Ki is 1.15 nM.

What about the “antidepressant effect (immobility)” value (mice [3]) of the same molecule?
The value was “antidepressant effects in this assay comparable to imipramine”.

And the “receptor occupancy by PET” value (5-HT2A receptors)?
The value was “occupies”.

What about the EC50 (5-HT1A receptors; GTPγ35S, CHO membranes) of the same molecule?
The EC50 was 310 nM.

What about the Emax (5-HT1A receptors; read-out: maximum efficacy) of the same molecule?
The Emax was 66%.
